Measurements as given in publication PMC6719955, “HPLC-ESI-qTOF-MS/MS Characterization, Antioxidant Activities and Inhibitory Ability of Digestive Enzymes with Molecular Docking Analysis of Various Parts of Raspberry (Rubus ideaus L.)” (Antioxidants, 2019).
Where two headings read alike, the source gives them in different places.

Assays:
[1] = parameters: method as in Malinda et al. (2017) [34]; settings: ref Malinda et al. (2017) [34]; cited from earlier work
[2] = biological target: α-glucosidase; assay: α-Glucosidase inhibition activity assay (p-NPG); assay type: biochemical, Saccharomyces cerevisiae; settings: 1 U/mL enzyme, pH 6.8, 37 °C
Source text: (§1) The Folin–Ciocalteu phenol reagent and chemicals used for the antioxidant activity assay were purchased from Aladdin Industrial Corporation (Shanghai, China). Phenolic standards, trolox, p-Nitrophenyl-α-D-glucopyranoside (p-NPG, > 99.8%), porcine pancreatic α-amylase (13 U/mg), and α-glucosidase (≥ 58 U/mg solid) from Saccharomyces cerevisiae were all purchased from Sigma-Aldrich (St. Louis, MO, USA). Analytical-grade materials were purchased from Guangzhou Reagent Co. (Guangzhou, China). Formic acid and acetonitrile used for the HPLC analysis were of chromatography grade. Water was purified by the Milli-Q (Millipore, MA, USA) system and filtered through membranes with a pore size of 0.22 μm before use.
The inhibitory activity of α-glucosidase was performed as the previous reported method with modifications. Briefly, 100 μL of the extracts’ dilutions and 100 μL of 1 U/mL α-glucosidase in 0.1 M phosphate buffer solution (pH 6.8) was mixed and pre-incubated at 37 °C for 10 min. Then, 100 μL of 5 mM p-NPG solution was added, and the reaction solution was incubated for another 20 min. The reaction was terminated by adding 500 μL of 0.2 M Na2CO3 solution. The absorbance at 405 nm was recorded. […] The inhibitory potency (%) was calculated by Equation (3). (3) α-Glucosidase inhibitory potency (%) = [1−ΔAs/ΔAc]×100 where ΔAs = Aextract+enzyme − Aextract, ΔAc = Abuffer+enzyme − Abuffer.

[3] = test system: α-glucosidase; settings: cited from earlier work
[4] = biological target: T1, porcine pancreatic α-amylase (Sus scrofa, UniProt P00690); assay: α-Amylase inhibition activity assay (starch/DNS); assay type: biochemical; settings: 0.5 mg/mL enzyme, pH 6.8, 37 °C
T1 construct: purchased Sigma-Aldrich
T1 sequence (P00690 16-511): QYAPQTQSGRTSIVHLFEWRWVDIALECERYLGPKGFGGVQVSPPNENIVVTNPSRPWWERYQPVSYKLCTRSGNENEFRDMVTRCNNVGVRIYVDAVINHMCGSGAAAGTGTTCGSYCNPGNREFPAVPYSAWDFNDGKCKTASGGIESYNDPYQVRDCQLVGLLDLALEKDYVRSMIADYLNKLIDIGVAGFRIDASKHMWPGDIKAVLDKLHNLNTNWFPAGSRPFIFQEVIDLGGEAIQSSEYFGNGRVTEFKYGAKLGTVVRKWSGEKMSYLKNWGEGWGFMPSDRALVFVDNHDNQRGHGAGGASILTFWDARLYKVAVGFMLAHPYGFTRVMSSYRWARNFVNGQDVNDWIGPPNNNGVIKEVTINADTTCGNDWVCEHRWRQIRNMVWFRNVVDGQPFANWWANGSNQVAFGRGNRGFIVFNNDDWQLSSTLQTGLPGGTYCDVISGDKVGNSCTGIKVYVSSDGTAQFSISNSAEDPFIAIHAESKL
Source text: as §1, with “Phenolic standards, trolox, p-Nitrophenyl-α-D-glucopyranoside (p-NPG, > 99.8%), porcine pancreatic α-amylase (13 U/mg), and α-glucosidase (≥ 58 U/mg solid) from Saccharomyces cerevisiae were all purchased from Sigma-Aldrich (St. Louis, MO, USA).” left out

[5] = DPPH radical scavenging activity assay; settings: extracts made with 50% methanol
Procedure: DPPH assay was measured based on the method described earlier. The absorbance at 517 nm was recorded by a microplate reader (SpectraMax M5 Molecular Device, CA, USA). Trolox or Vc solution (5–100 μg/mL) were served as positive controls. […] (1) DPPH radical scavenging activity (%) = (1−As−Ab/Ac)×100 where As = the absorbance of the sample extracts with DPPH solution, Ab = the absorbance of the sample extracts without DPPH solution, Ac = the absorbance of DPPH solution.

[6] = Hydroxyl (OH^−) radical scavenging activity assay; settings: extracts made with 50% methanol
Procedure: The scavenging activity of OH[…] radicals was measured based on the method described by Liu et al., 2017 [19]. The reaction mixture included 100 μL of the extracts’ dilutions, 100 μL of 6 mM […] solution, and 100 μL of 2.4 mM H2O2. After 10 min of incubation at 25°C, the mixture was incubated with 100 μL of 6 mM salicylic acid at 25 °C for 30 min, then the absorbance at 510 nm was measured. A Trolox or Vc solution (5–100 μg/mL) served as the positive control.

[7] = ABTS cation radical scavenging activity assay; settings: extracts made with 50% methanol
Procedure: ABTS assay was determined according to the method of Wang et al. (2017). The absorbance at […] was recorded by the microplate reader. Trolox or Vc solution (5–100 μg/mL) was served as positive controls. The scavenging activity (%) was calculated by Equation (2). (2) ABTS^+ radical scavenging activity (%) = (1−As−Ab/Ac)×100 where As = the absorbance of the extracts with ABTS^+ solution, Ab = the absorbance of the extracts without ABTS^+ solutionl, Ac = the absorbance of ABTS^+ solution.

[8] = constituents in raspberry, ref Zhang et al. (2010) [39]

SMILES	DPPH radical scavenging activity IC50 [1] [µg/mL]	α-glucosidase inhibition IC50 [2] [µg/mL]	α-glucosidase inhibitory capacity [3, 8]	DPPH radical scavenging IC50 [5] [µg/mL]	OH^− free radical scavenging IC50 [6] [µg/mL]	further results
O=c1oc2c(O)c(O)cc3c(=O)oc4c(O)c(O)cc1c4c23 [EA, Ellagic acid]	4.80	976.32 ± 41.72	weakest	–	–	–
O=C(O)c1cc(O)c(O)c(O)c1 [GA, Gallic acid]	2.24	590.34 ± 15.71	strong	–	–	–
Oc1cc(O)c2c(c1)O[C@H](c1ccc(O)c(O)c1)[C@@H](O)[C@@H]2c1c(O)cc(O)c2c1O[C@H](c1ccc(O)c(O)c1)[C@@H](O)[C@@H]2c1c(O)cc(O)c2c1O[C@H](c1ccc(O)c(O)c1)[C@@H](O)C2 [PC, Procyanidin C3]	–	93.37 ± 5.79	–	–	–	α-amylase inhibition IC50 [4]: 92.31 ± 3.51 µg/mL; α-glucosidase inhibitory capacity ([3]; ref Wang et al. (2018) [38]): strong
Cc1c(C)c2c(c(C)c1O)CCC(C)(C(=O)O)O2 (stereo not drawn) [Trolox]	–	–	–	39.90 ± 0.67	33.91 ± 1.82	ABTS^+ free radical scavenging IC50 [7]: 41.50 ± 1.97 µg/mL
O=C1O[C@H]([C@@H](O)CO)C(O)=C1O [Vc, ascorbic acid]	–	–	–	16.80 ± 1.31	19.83 ± 0.37	–
C[C@@H]1O[C@@H](OC[C@H]2O[C@@H](Oc3c(-c4ccc(O)c(O)c4)oc4cc(O)cc(O)c4c3=O)[C@H](O)[C@@H](O)[C@@H]2O)[C@H](O)[C@H](O)[C@H]1O [rutin, Rutin]	–	–	strong	–	–	–
